Data published in ChEMBL document CHEMBL4138123, “Design, synthesis and biological evaluation of novel pyrazolochalcones as potential modulators of PI3K/Akt/mTOR pathway and inducers of apoptosis in breast cancer cells” (Eur J Med Chem, 2017).

How the values were obtained:
Assay type in all cases: functional
CCRF-CEM [1] = experiment: Cytotoxicity against human CCRF-CEM cells assessed as growth inhibition after 48 hrs by sulforhodamine B assay
K562 = experiment: Cytotoxicity against human K562 cells assessed as growth inhibition after 48 hrs by sulforhodamine B assay; details: K562, 48 h
NCI-H226 = experiment: Cytotoxicity against human NCI-H226 cells assessed as growth inhibition after 48 hrs by sulforhodamine B assay; details: NCI-H226, 48 h
SF-539 [2] = experiment: Cytotoxicity against human SF539 cells assessed as growth inhibition after 48 hrs by sulforhodamine B assay; details: SF-539, 48 h
SK-MEL-2 = experiment: Cytotoxicity against human SK-MEL-2 cells assessed as growth inhibition after 48 hrs by sulforhodamine B assay; details: SK-MEL-2, 48 h
UACC-62 [3] = experiment: Cytotoxicity against human UACC62 cells assessed as growth inhibition after 48 hrs by sulforhodamine B assay; details: UACC-62, 48 h
OVCAR-4 = experiment: Cytotoxicity against human OVCAR4 cells assessed as growth inhibition after 48 hrs by sulforhodamine B assay; details: OVCAR-4, 48 h
RXF 393 [4] = experiment: Cytotoxicity against human RXF393 cells assessed as growth inhibition after 48 hrs by sulforhodamine B assay; details: RXF 393, 48 h
MDA-MB-231 = experiment: Cytotoxicity against human MDA-MB-231 cells assessed as growth inhibition after 48 hrs by sulforhodamine B assay; details: MDA-MB-231, 48 h
BT-549 = experiment: Cytotoxicity against human BT549 cells assessed as growth inhibition after 48 hrs by sulforhodamine B assay; details: BT-549, 48 h
CCRF-CEM [5] = experiment: Cytotoxicity against human CCRF-CEM cells assessed as cell growth at 0.01 uM after 48 hrs by sulforhodamine B assay relative to control; details: read-out: Activity
SK-OV-3 = experiment: Cytotoxicity against human SKOV3 cells assessed as cell growth at 0.01 uM after 48 hrs by sulforhodamine B assay relative to control; details: SK-OV-3, 48 h, read-out: Activity
IGROV-1 = experiment: Cytotoxicity against human IGROV1 cells assessed as cell growth at 0.01 uM after 48 hrs by sulforhodamine B assay relative to control; details: IGROV-1, 48 h, read-out: Activity
SK-MEL-5 = experiment: Cytotoxicity against human SK-MEL-5 cells assessed as cell growth at 0.01 uM after 48 hrs by sulforhodamine B assay relative to control; details: SK-MEL-5, 48 h, read-out: Activity
Malme-3M [6] = experiment: Cytotoxicity against human MALME-3M cells assessed as cell growth at 0.01 uM after 48 hrs by sulforhodamine B assay relative to control; details: read-out: Activity
TK-10 = experiment: Cytotoxicity against human TK10 cells assessed as cell growth at 0.01 uM after 48 hrs by sulforhodamine B assay relative to control; details: TK-10, 48 h, read-out: Activity
CCRF-CEM [7] = experiment: Cytotoxicity against human CCRF-CEM cells assessed as cell growth at 0.1 uM after 48 hrs by sulforhodamine B assay relative to control; details: read-out: Activity
HCT-116 [8] = experiment: Cytotoxicity against human HCT116 cells assessed as cell growth at 0.1 uM after 48 hrs by sulforhodamine B assay relative to control; details: HCT-116, 48 h, read-out: Activity
HCT-15 = experiment: Cytotoxicity against human HCT15 cells assessed as cell growth at 0.1 uM after 48 hrs by sulforhodamine B assay relative to control; details: HCT-15, 48 h, read-out: Activity
SNB-19 [9] = experiment: Cytotoxicity against human SNB19 cells assessed as cell growth at 0.1 uM after 48 hrs by sulforhodamine B assay relative to control; details: SNB-19, 48 h, read-out: Activity
UACC-257 = experiment: Cytotoxicity against human UACC257 cells assessed as cell growth at 0.1 uM after 48 hrs by sulforhodamine B assay relative to control; details: UACC-257, 48 h, read-out: Activity
RXF 393 [10] = experiment: Cytotoxicity against human RXF393 cells assessed as cell growth at 0.1 uM after 48 hrs by sulforhodamine B assay relative to control; details: RXF 393, 48 h, read-out: Activity
NCI-H522 [11] = experiment: Cytotoxicity against human NCI-H522 cells assessed as cell growth at 1 uM after 48 hrs by sulforhodamine B assay relative to control; details: NCI-H522, 48 h, read-out: Activity
ACHN [12] = experiment: Cytotoxicity against human ACHN cells assessed as cell growth at 1 uM after 48 hrs by sulforhodamine B assay relative to control; details: read-out: Activity
NCI-H322M [13] = experiment: Cytotoxicity against human NCI-H322M cells assessed as cell growth at 10 uM after 48 hrs by sulforhodamine B assay relative to control; details: read-out: Activity
NCI-H522 [14] = experiment: Cytotoxicity against human NCI-H522 cells assessed as cell growth at 10 uM after 48 hrs by sulforhodamine B assay relative to control; details: NCI-H522, 48 h, read-out: Activity
HCT-116 [15] = experiment: Cytotoxicity against human HCT116 cells assessed as cell growth at 10 uM after 48 hrs by sulforhodamine B assay relative to control; details: HCT-116, 48 h, read-out: Activity
SF-539 [16] = experiment: Cytotoxicity against human SF539 cells assessed as cell growth at 10 uM after 48 hrs by sulforhodamine B assay relative to control; details: SF-539, 48 h, read-out: Activity
SNB-19 [17] = experiment: Cytotoxicity against human SNB19 cells assessed as cell growth at 10 uM after 48 hrs by sulforhodamine B assay relative to control; details: SNB-19, 48 h, read-out: Activity
Malme-3M [18] = experiment: Cytotoxicity against human MALME-3M cells assessed as cell growth at 10 uM after 48 hrs by sulforhodamine B assay relative to control; details: read-out: Activity
UACC-62 [19] = experiment: Cytotoxicity against human UACC62 cells assessed as cell growth at 10 uM after 48 hrs by sulforhodamine B assay relative to control; details: UACC-62, 48 h, read-out: Activity
ACHN [20] = experiment: Cytotoxicity against human ACHN cells assessed as cell growth at 10 uM after 48 hrs by sulforhodamine B assay relative to control; details: read-out: Activity
HOP-62 = experiment: Cytotoxicity against human HOP62 cells assessed as cell growth at 100 uM after 48 hrs by sulforhodamine B assay relative to control; details: HOP-62, 48 h, read-out: Activity
NCI-H322M [21] = experiment: Cytotoxicity against human NCI-H322M cells assessed as cell growth at 100 uM after 48 hrs by sulforhodamine B assay relative to control; details: read-out: Activity
OVCAR-3 = experiment: Cytotoxicity against human OVCAR3 cells assessed as cell growth at 100 uM after 48 hrs by sulforhodamine B assay relative to control; details: OVCAR-3, 48 h, read-out: Activity
RXF 393 [22] = experiment: Cytotoxicity against human RXF393 cells assessed as cell growth at 100 uM after 48 hrs by sulforhodamine B assay relative to control; details: RXF 393, 48 h, read-out: Activity

COc1ccc(C(=O)/C=C/c2cc(-c3cc(OC)c(OC)c(OC)c3)n[nH]2)cc1
LC50 (concentration killing 50% of cells) (CCRF-CEM [1]): > 100 µM | TGI (CCRF-CEM [1]): 5.85 µM | LC50 (concentration killing 50% of cells) (K562): > 100 µM | TGI (NCI-H226): 4.07 µM | GI50 (SF-539 [2]): 1.62 µM | LC50 (concentration killing 50% of cells) (SF-539 [2]): 5.85 µM | TGI (SF-539 [2]): 3.08 µM | LC50 (concentration killing 50% of cells) (SK-MEL-2): 99.2 µM | TGI (SK-MEL-2): 19.6 µM | TGI (UACC-62 [3]): 3.65 µM | LC50 (OVCAR-4): > 100 µM | TGI (OVCAR-4): 8.32 µM | LC50 (concentration killing 50% of cells) (RXF 393 [4]): 5.17 µM | TGI (RXF 393 [4]): 2.56 µM | LC50 (MDA-MB-231): > 100 µM | TGI (BT-549): 3.86 µM | growth at 0.01 µM (CCRF-CEM [5]): 99% | growth at 0.01 µM (SK-OV-3): 100% | growth at 0.01 µM (IGROV-1): 101% | growth at 0.01 µM (SK-MEL-5): 100% | growth at 0.01 µM (Malme-3M [6]): 95% | growth at 0.01 µM (TK-10): 89% | growth at 0.1 µM (CCRF-CEM [7]): 98% | growth at 0.1 µM (HCT-116 [8]): 102% | growth at 0.1 µM (HCT-15): 100% | growth at 0.1 µM (SNB-19 [9]): 88% | growth at 0.1 µM (UACC-257): 97% | growth at 0.1 µM (RXF 393 [10]): 90% | growth at 1 µM (NCI-H522 [11]): 75% | growth at 1 µM (ACHN [12]): 105% | growth at 10 µM (NCI-H322M [13]): -60% | growth at 10 µM (NCI-H522 [14]): -73% | growth at 10 µM (HCT-116 [15]): -22% | growth at 10 µM (SF-539 [16]): -92% | growth at 10 µM (SNB-19 [17]): -85% | growth at 10 µM (Malme-3M [18]): -66% | growth at 10 µM (UACC-62 [19]): -74% | growth at 10 µM (ACHN [20]): -83% | growth at 100 µM (HOP-62): -79% | growth at 100 µM (NCI-H322M [21]): -31% | growth at 100 µM (OVCAR-3): -69% | growth at 100 µM (RXF 393 [22]): -93%
